Reference: patent publication US20120071475A1, “UREA DERIVATIVES HAVING PI3K-INHIBITING ACTIVITY” (SHIONOGI & CO., LTD., priority 2009, published 2012)

Experiments:
CYP3A4 = molecular target: T1, CYP3A4 (Homo sapiens, UniProt P08684); assay: CYP3A4 fluorescence MBI test; format: in vitro ADME; details: difference in IC50 with 0 or 30 minutes pre-reaction; CYP3A4 expressed in E. coli, substrate 7-BFC
T1 construct: host or cells: E. coli
Method: The CYP3A4 fluorescence MBI test is a test to examine the enhancement of CYP3A4 inhibition of a compound by a metabolic reaction. The test was performed using as an index, a reaction to produce a metabolite 7-hydroxytrifluoromethylcoumarin (HFC) which emits fluorescence, in which CYP3A4 expressed in E. coli was used as an enzyme and 7-benzyloxytrifluoromethylcoumarin (7-BFC) is debenzylated by CYP3A4 enzyme.
The reaction conditions are as follows: substrate: 5.6 μmol/L 7-BFC; pre-reaction time; 0 or 30 minutes; reaction time: 15 minutes; reaction temperature: 25° C. (room temperature); content of CYP3A4 (an enzyme expressed in E. coli): […] at the time of a pre-reaction and […] (when diluted 10 times) at the time of a reaction; the concentrations of a test drug: 0.625, 1.25, 2.5, 5, 10, and 20 μmol/L (6 points).
In a 96-well plate, an enzyme solution and a test drug solution were added as a pre-reaction solution into K-Pi buffer solution (pH 7.4) in the aforementioned ratio. A portion thereof was transferred to another 96-well plate to be diluted ten times with a substrate and a K-Pi buffer solution. A coenzyme, NADPH, was then added to start a reaction, which is the index (this is without a pre-reaction). After reacting for a predetermined time, 4:1 of acetonitrile: 0.5 mol/L Tris (trishydroxyaminomethane) was added to quench the reaction. To the remaining pre-reaction solution, NADPH was added to start a pre-reaction (this is with a pre-reaction). After pre-reacting for a predetermined time, a portion thereof was transferred to another plate to be diluted ten times with a substrate and K-Pi buffer solution, and thereby the index reaction is started. After reacting for a predetermined time, 4:1 of acetonitrile:0.5 mol/L Tris (trishydroxyaminomethane) was added to quench the reaction. For each plate in which the index reaction was carried out, the fluorescence value of a metabolite 7-HFC was measured with a fluorescent plate reader (Ex=420 nm, Em=535 nm).
The case wherein only DMSO (a solvent which dissolved a drug) was added to a reaction system was defined as a control (100%). When a test drug solution was added, the remaining activity (%) at each concentration was calculated, and then IC50 was calculated with a concentration and an inhibition ratio by an inverse estimation using a logistic model. When the difference in IC50 value is 5 μmol/L or more, the compound is shown as (+). When 3 μmol/L or less, the compound is shown as (−).

PI3Kγ = PI3Kγ (Homo sapiens, UniProt P48736); assay: PI3Kγ inhibitory activity (PI3-kinase HTRF assay, inhibition ratio); format: biochemical; details: 0.5 h, compound at 10 μmol/L; read-out: PI3Kg Inhibition Ratio % (10 μM)
Method: For each compound synthesized in the above Examples, PI3Kγ inhibitory activity was measured.
The PI3Kγ inhibitory activity of a compound was evaluated using PI3-kinase HTRF™ assay (Millipore) according to the following procedure:
To each well of a testing plate, 5 μL of a compound solution containing 10% DMSO (40 μmol/L as the concentration of the compound), 5 μL of a substrate solution (40 μmol/L phosphatidylinositol (4,5)-bisphosphate, 20 mmol/L MgCl2, 10 mmol/L DTT), and 5 μL of an enzyme solution (80 μg/mL PI-3 kinase y, 10 mmol/L MgCl2, 5 mmol/L DTT) were added, and then allowed to stand for 10 minutes.
Then, 5 μL of a reaction solution (40 μmol/L ATP, 10 mmol/L MgCl2, 5 mmol/L DTT) was added thereto. After reacting for 30 minutes at room temperature, 5 μL of a solution containing EDTA and biotinylated phosphatidylinositol (3,4,5)-triphosphate was added to quench the reaction.
5 μL of a detection reagent containing a europium-labeled anti-GST antibody, the GST-tagged PH domain, and allophycocyanin-labeled streptavidin was added thereto. After 18 hours, HTRF (excitation wavelength: 330 nm, measured wavelengths: 620 nm and 665 nm) was measured.
HTRF ratio was defined as the value obtained by dividing the amount of fluorescence obtained at the measured wavelength 665 nm by the amount of fluorescence obtained at 620 nm. The HTRF ratio in the absence of a compound was defined as 100% activity and the HTRF ratio in the absence of PI-3 kinase y was defined as 0% activity to calculate an inhibition ratio, which was defined as the PI3Kγ inhibitory activity of a compound at 10 μmol/L.

[1] = Metabolic stability test (pooled human liver microsome); format: in vitro ADME; details: percentage of test compound remained after 30 minutes, pooled human liver microsome 0.5 mg protein/mL, 1 mmol/L NADPH, 37° C., compound 0.5 μM
Method: After a subject compound was reacted for a certain time using a pooled human liver microsome commercially available, a reacted sample and an unreacted sample are compared to calculate a survival ratio, and then the degree of metabolism in the liver was evaluated.
0.2 mL of a buffer solution (50 mmol/L of Tris-HCl in pH 7.4, 150 mmol/L of potassium chloride, and 10 mmol/L of magnesium chloride) containing a human liver microsome of 0.5 mg protein/mL was reacted in the presence of 1 mmol/L NADPH at 37° C. for 0 or 30 minutes (oxidative reaction). After reacting, 50 μL of the reaction solution was added to 100 μL of a solution of methanol/acetonitrile (1/1 (v/v)), mixed, and then centrifuged at 3000 rpm for 15 minutes. The test compound in the supernatant was quantitated with LC/MS/MS. The amount of the compound at a reaction time of 0 minute was defined as 100% and, based on that, the percentage of the test compound remained after reacting for 30 minutes was calculated.

Chain of PI3Kγ (P48736 whole entry, species assumed): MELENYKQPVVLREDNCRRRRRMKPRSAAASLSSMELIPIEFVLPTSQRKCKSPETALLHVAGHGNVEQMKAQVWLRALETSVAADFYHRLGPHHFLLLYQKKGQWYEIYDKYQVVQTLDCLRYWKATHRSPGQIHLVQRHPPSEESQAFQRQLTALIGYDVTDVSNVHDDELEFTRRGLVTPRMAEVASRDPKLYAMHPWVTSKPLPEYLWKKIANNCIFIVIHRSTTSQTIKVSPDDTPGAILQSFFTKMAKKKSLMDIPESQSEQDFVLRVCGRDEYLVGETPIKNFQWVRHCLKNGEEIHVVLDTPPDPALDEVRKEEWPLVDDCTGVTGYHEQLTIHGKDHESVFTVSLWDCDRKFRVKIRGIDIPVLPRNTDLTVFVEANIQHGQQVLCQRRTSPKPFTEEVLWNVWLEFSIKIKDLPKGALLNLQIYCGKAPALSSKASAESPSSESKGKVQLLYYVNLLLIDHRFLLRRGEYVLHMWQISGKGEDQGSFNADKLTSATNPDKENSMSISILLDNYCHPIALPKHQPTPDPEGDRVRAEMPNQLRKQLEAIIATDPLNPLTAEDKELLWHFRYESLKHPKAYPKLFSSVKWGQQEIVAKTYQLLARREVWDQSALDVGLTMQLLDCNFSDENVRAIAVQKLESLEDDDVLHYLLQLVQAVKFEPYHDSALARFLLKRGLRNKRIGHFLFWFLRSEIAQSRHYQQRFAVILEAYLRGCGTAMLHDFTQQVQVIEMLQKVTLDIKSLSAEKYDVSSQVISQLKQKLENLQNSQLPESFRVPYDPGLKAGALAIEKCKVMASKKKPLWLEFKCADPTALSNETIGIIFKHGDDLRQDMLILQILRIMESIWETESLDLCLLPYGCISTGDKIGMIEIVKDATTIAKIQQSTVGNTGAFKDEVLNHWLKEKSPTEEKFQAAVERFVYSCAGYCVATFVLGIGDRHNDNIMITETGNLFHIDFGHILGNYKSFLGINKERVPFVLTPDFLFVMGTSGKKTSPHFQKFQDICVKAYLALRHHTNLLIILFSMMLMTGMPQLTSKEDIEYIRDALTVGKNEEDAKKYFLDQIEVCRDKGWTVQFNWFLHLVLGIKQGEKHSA
T1 sequence (P08684 whole entry): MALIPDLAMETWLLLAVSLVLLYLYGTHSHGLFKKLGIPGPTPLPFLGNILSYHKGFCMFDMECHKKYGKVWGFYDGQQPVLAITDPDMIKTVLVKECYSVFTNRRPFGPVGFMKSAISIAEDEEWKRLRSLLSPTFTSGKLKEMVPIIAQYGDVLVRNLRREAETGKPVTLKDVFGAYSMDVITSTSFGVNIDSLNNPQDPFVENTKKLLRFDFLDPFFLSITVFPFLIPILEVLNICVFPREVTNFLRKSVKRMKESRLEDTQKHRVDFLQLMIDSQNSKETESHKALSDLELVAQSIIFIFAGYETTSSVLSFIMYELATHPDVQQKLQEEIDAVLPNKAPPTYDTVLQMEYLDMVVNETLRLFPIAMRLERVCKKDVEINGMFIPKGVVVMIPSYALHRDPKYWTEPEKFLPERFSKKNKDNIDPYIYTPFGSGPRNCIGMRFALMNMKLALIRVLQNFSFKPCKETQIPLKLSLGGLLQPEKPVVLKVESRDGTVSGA

Row | inhibition at 10 µM (PI3Kγ) [%] | hLMS_ox(at 0.5 μM) % [1] [%] | SMILES | MBI (CYP3A4)
1 | ≥ 95 |  | COc1cc(N2CCc3nc(NC(=O)Nc4ccccc4C(=O)NC4(C#N)CC4)sc3C2)nc(OC)n1 [Compound I-20] | (−) (When 3 μmol/L or less, the compound is shown as (−))
2 | ≥ 95 |  | COc1cc(N2CCc3nc(NC(=O)Nc4cccnc4C(=O)NC(C)(C)C)sc3C2)nc(OC)n1 [Compound I-22] | (−) (When 3 μmol/L or less, the compound is shown as (−))
3 | ≥ 95 |  | COc1cc(N2CCc3nc(NC(=O)Nc4cnccc4C(=O)NC(C)(C)C)sc3C2)nc(OC)n1 [Compound I-23] | (−) (When 3 μmol/L or less, the compound is shown as (−))
4 | ≥ 95 |  | COc1cc(N2CCc3nc(NC(=O)Nc4cccnc4C(=O)N(C)C(C)C)sc3C2)nc(OC)n1 [Compound I-24] | (−) (When 3 μmol/L or less, the compound is shown as (−))
5 |  |  | COc1cc(N2CCc3nc(NC(=O)Nc4ccccc4C(F)(F)F)sc3C2)nc(OC)n1 [Compound I-33] | (−) (When 3 μmol/L or less, the compound is shown as (−))
6 |  |  | COc1cc(N2CCc3nc(NC(=O)Nc4ccccc4OC(F)(F)F)sc3C2)nc(OC)n1 [Compound I-34] | (−) (When 3 μmol/L or less, the compound is shown as (−))
7 | ≥ 95 | 101 | COc1cc(N2CCc3nc(NC(=O)Nc4ccccc4C(N)=O)sc3C2)nc(OC)n1 [Compound I-35] | (−) (When 3 μmol/L or less, the compound is shown as (−))
8 |  |  | COc1cc(N2CCc3nc(NC(=O)Nc4ccccc4OCc4ccccc4)sc3C2)nc(OC)n1 [Compound I-39] | (−) (When 3 μmol/L or less, the compound is shown as (−))
9 |  |  | COc1cc(N2CCc3nc(NC(=O)Nc4ccccc4C(C)(C)C)sc3C2)nc(OC)n1 [Compound I-40] | (−) (When 3 μmol/L or less, the compound is shown as (−))
10 |  |  | COc1cncc(N2CCc3nc(NC(=O)Nc4ccccc4C(=O)NC(C)C)sc3C2)c1 [Compound I-49] | (−) (When 3 μmol/L or less, the compound is shown as (−))
11 |  | 95.5 | CNC(=O)c1ccccc1NC(=O)Nc1nc2c(s1)CN(c1cc(OC)nc(OC)n1)CC2 [Compound I-56] | (−) (When 3 μmol/L or less, the compound is shown as (−))
12 |  |  | COc1cc(N2CCc3nc(NC(=O)Nc4ccccc4C(=O)NCC(C)C)sc3C2)nc(OC)n1 [Compound I-58] | (−) (When 3 μmol/L or less, the compound is shown as (−))
13 |  |  | COc1cc(N2CCc3nc(NC(=O)Nc4ccccc4C(=O)NCCC(C)C)sc3C2)nc(OC)n1 [Compound I-59] | (−) (When 3 μmol/L or less, the compound is shown as (−))
14 |  |  | COc1cc(OC)nc(N2CCc3nc(NC(=O)Nc4ccccc4C(=O)NC(C)C)sc3C2)c1 [Compound I-62] | (−) (When 3 μmol/L or less, the compound is shown as (−))
15 | ≥ 95 |  | COc1cc(N2CCc3nc(NC(=O)Nc4ccccc4C(=O)CC(C)C)sc3C2)nc(OC)n1 [Compound I-65] | (−) (When 3 μmol/L or less, the compound is shown as (−))
16 |  | 83.3 | COc1cc(N2CCc3nc(NC(=O)Nc4cc(F)ccc4C(=O)NC(C)C)sc3C2)nc(OC)n1 [Compound I-74] | (−) (When 3 μmol/L or less, the compound is shown as (−))
17 |  |  | COc1cc(N2CCc3nc(NC(=O)Nc4cccc(F)c4C(=O)NC(C)C)sc3C2)nc(OC)n1 [Compound I-75] | (−) (When 3 μmol/L or less, the compound is shown as (−))
18 |  |  | COc1cncc(C2(F)CCc3nc(NC(=O)Nc4ccccc4C(=O)NC(C)C)sc3C2)c1 (stereo not drawn) [Compound I-79] | (−) (When 3 μmol/L or less, the compound is shown as (−))
19 | ≥ 95 |  | CC(C)NC(=O)c1ccccc1NC(=O)Nc1nc2c(s1)CN(c1ccnc(Cl)n1)CC2 [Compound I-98] | (−) (When 3 μmol/L or less, the compound is shown as (−))
20 | 83 | 90.5 | Cc1cc(N2CCc3nc(NC(=O)Nc4ccccc4C(=O)NC(C)C)sc3C2)nc(Cl)n1 [Compound I-163] | (−) (When 3 μmol/L or less, the compound is shown as (−))
21 | 89 | 104 | Cc1cc(N2CCc3nc(NC(=O)Nc4ccccc4C(=O)N[C@@H](C)CO)sc3C2)nc(Cl)n1 [Compound I-168] | (−) (When 3 μmol/L or less, the compound is shown as (−))
22 | 89 | 92.6 | Cc1cc(N2CCc3nc(NC(=O)Nc4ccccc4C(=O)N[C@@H](C)CO)sc3C2)nc(C#N)n1 [Compound I-180] | (−) (When 3 μmol/L or less, the compound is shown as (−))
23 | ≥ 95 | 87.6 | Cc1cc(N2CCc3nc(NC(=O)Nc4ccccc4C(=O)N[C@H](C)CO)sc3C2)nc(C#N)n1 [Compound I-185] | (−) (When 3 μmol/L or less, the compound is shown as (−))
24 | 91 |  | Cc1cc(N2CCc3nc(NC(=O)Nc4cn(C)nc4C(=O)NC(C)C)sc3C2)nc(C#N)n1 [Compound I-186] | (−) (When 3 μmol/L or less, the compound is shown as (−))
25 | ≥ 95 |  | CS(=O)(=O)c1cccc(N2CCc3nc(NC(=O)Nc4ccccc4C(=O)NCC#N)sc3C2)c1 [Compound I-200] | (−) (When 3 μmol/L or less, the compound is shown as (−))
